Columns and labels:
GLP-1R [1] = molecular target: T1, GLP-1R (Homo sapiens, UniProt P43220); assay: Agonist-induced GLP-1R internalization (cell surface receptor loss), post-stimulation Lumi4-Tb surface labeling, CHO-SNAP-GLP-1R cells; format: cell-based; details: ± 3 μM BETP, 30 min, 100 nM exendin-4, n=4
INS-1 832/3 cells = assay: Insulin secretion in INS-1 832/3 beta cells; format: cell-based, rat; details: INS-1 832/3, 16 h
SNAP-GLP-1R [2] = molecular target: T2, SNAP-GLP-1R (Homo sapiens, UniProt P43220); assay: Competitive association kinetics (TR-FRET, competition with exendin-4-FITC), CHO-SNAP-GLP-1R cells; format: binding
SNAP-GLP-1R [3] = molecular target: T2, SNAP-GLP-1R; assay: GLP-1R recycling, plate reader surface labeling, CHO-SNAP-GLP-1R cells; format: cell-based
GLP-1R [4] = molecular target: T1, GLP-1R; assay: cAMP accumulation (HTRF) in PathHunter CHO-GLP-1R cells; format: cell-based; set-up: host or cells: PathHunter CHO-K1 reporter cells (purchased cell lines); details: ± 3 μM BETP, n=3
GLP-1R [5] = molecular target: T1, GLP-1R; assay: β-arrestin-2 recruitment, PathHunter CHO-GLP-1R cells; format: cell-based; set-up: host or cells: PathHunter CHO-K1 reporter cells (purchased cell lines); details: ± 3 μM BETP, n=3

T2 sequence (P43220 24-463): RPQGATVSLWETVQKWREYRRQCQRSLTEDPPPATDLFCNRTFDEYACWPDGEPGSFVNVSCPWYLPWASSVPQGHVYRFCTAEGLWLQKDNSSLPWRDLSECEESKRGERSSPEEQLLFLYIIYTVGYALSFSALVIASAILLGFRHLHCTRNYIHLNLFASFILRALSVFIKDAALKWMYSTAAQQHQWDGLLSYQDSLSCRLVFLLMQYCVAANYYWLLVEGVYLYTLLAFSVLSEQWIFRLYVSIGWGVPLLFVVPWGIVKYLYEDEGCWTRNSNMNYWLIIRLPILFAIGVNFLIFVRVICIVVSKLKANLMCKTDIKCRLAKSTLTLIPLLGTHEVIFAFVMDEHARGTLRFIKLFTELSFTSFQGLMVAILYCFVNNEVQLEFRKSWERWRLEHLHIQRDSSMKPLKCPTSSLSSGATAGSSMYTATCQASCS
T1 sequence (P43220 24-463): as above

effect on exendin-4-induced internalization (GLP-1R [1]) | effect on exendin-4 association rate (SNAP-GLP-1R [2]; ± 10 μM BETP, n=4) | effect on exendin-4 residence time (SNAP-GLP-1R [2]; ± 10 μM BETP, n=4) | effect on GLP-1R recycling after exendin-4 exposure (SNAP-GLP-1R [3]; ± 3 μM BETP, 60 min recycling, 100 nM exendin-4, n=4) | effect on exendin-4 cAMP response (GLP-1R [4]) | effect on exendin-4 β-arrestin-2 recruitment response (GLP-1R [5]) | agonist residence time (comparison in words) (SNAP-GLP-1R [2]; CHO-SNAP-GLP-1R, normalized to exendin-4-FITC response per assay, n=5) | GLP-1R recycling (comparison in words) (SNAP-GLP-1R [3]; 100 nM, 60 min, with 10 μM exendin(9-39), n=5) | Molecule | effect on exendin-4-induced prolonged insulin secretion (INS-1 832/3 cells; ± 3 µM BETP, n=5) | prolonged insulin secretion, comparison with licensed GLP-1R agonists (INS-1 832/3 cells; 100 nM, tested in parallel, n=6)
minimal effect | without changes | increased | slowed | did not affect | did not affect |  |  | CC[S+]([O-])c1nc(-c2cccc(OCc3ccccc3)c2)cc(C(F)(F)F)n1 (stereo not shown) [BETP, 4-(3-(benzyloxy)phenyl)-2-(ethylsulfinyl)-6-(trifluoro-methyl)pyrimidine] | reduced | 
 |  |  |  |  |  | shorter than other compounds | modestly increased recycling | Dulaglutide |  | closest to ex-phe1

Source: article PMC5913239, “Targeting GLP-1 receptor trafficking to improve agonist efficacy” (Nature Communications, 2018)
